Experimental data as given in patent US6274715A, “Tricyclic erythromycin derivatives” (priority 1997, dated 2001).
Values after ≈ are worked out from the molar mass of the structure shown.

Experiments:
Assay type in all cases: cell-based
[1] = test system: PROVIDENCIA STUARTII CMX 640; details: P. stuartii CMX 640; BHI agar; unit assumed
[2] = test system: PSEUDOMONAS AERUGINOSA BMH10; assay: In vitro antibacterial activity, MIC, BHI agar dilution; details: P. aeruginosa BMH10, unit assumed
[3] = test system: PSEUDOMONAS AERUGINOSA 5007; assay: as above; details: P. aeruginosa 5007, unit assumed
ESCHERICHIA COLI JUHL = details: E. coli JUHL; BHI agar; unit assumed
[4] = test system: KLEBSIELLA PNEUMONIAE ATCC 8045; assay: In vitro antibacterial activity, MIC, BHI agar dilution; details: K. pneumoniae ATCC 8045, unit assumed
[5] = test system: STAPHYLOCOCCUS AUREUS ATCC 6538P; assay: as above; details: S. aureus ATCC 6538P, 35-37° C., 20 to 24 hours, unit assumed
PSEUDOMONAS CEPACIA 296I = assay: as above; details: P. cepacia 296I, unit assumed
ESCHERICHIA COLI H560 = assay: as above; details: E. coli H560, unit assumed
ESCHERICHIA COLI SS = assay: as above; details: E. coli SS, unit assumed
[6] = test system: PSEUDOMONAS AERUGINOSA K799/61; assay: as above; details: P. aeruginosa K799/61, unit assumed
[7] = test system: STAPHYLOCOCCUS AUREUS A-5278; assay: as above; details: S. aureus A-5278, unit assumed
[8] = test system: STAPHYLOCOCCUS EPIDERMIDIS 3519; details: S. epidermidis 3519; BHI agar; unit assumed
ESCHERICHIA COLI DC-2 = assay: In vitro antibacterial activity, MIC, BHI agar dilution; details: E. coli DC-2, unit assumed
[9] = test system: PSEUDOMONAS AERUGINOSA DPHD-2862; assay: as above; details: P. aeruginosa DPHD-2862, unit assumed
[10] = test system: ENTEROBACTER AEROGENES ATCC 13048; assay: as above; details: E. aerogenes ATCC 13048, unit assumed
[11] = test system: STREPTOCOCCUS PYOGENES EES61; assay: as above; details: S. pyogenes EES61, unit assumed
[12] = test system: STREPTOCOCCUS PYOGENES 930; assay: as above; details: S. pyogenes 930, unit assumed
[13] = test system: MYCOBACTERIUM SMEGMATIS ATCC 114; assay: as above; details: M. smegmatis ATCC 114, unit assumed
[14] = test system: STAPHYLOCOCCUS AUREUS NCTC10649M; assay: as above; details: S. aureus NCTC10649M, unit assumed
[15] = test system: STAPHYLOCOCCUS AUREUS CMX 642A; assay: as above; details: S. aureus CMX 642A, unit assumed
CANDIDA ALBICANS CCH 442 = assay: as above; details: C. albicans CCH 442, unit assumed
[16] = test system: STREPTOCOCCUS PYOGENES PIU 2548; assay: as above; details: S. pyogenes PIU 2548, unit assumed
[17] = test system: STAPHYLOCOCCUS AUREUS 1775; assay: as above; details: S. aureus 1775, unit assumed
ESCHERICHIA COLI KNK 437 = details: E. coli KNK 437; BHI agar; unit assumed
[18] = test system: STREPTOCOCCUS BOVIS A-5169; assay: In vitro antibacterial activity, MIC, BHI agar dilution; details: S. bovis A-5169, unit assumed
[19] = test system: ACINETOBACTER CALCOACETICUS CMX 669; assay: as above; details: A. calcoaceticus CMX 669, unit assumed
[20] = test system: PSEUDOMONAS AERUGINOSA K799/WT; assay: as above; details: P. aeruginosa K799/WT, unit assumed
STR[…] 508 = assay: as above; details: S. agalactiae CMX 508, unit assumed
In short: (§1)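 BHI agar dilution, 12 plates; inoculum 1:100 (1:10 slow-growing strains), Steers replicator; 35-37° C, 20-24 h. MIC = lowest conc. with no growth/slight haze/sparse colonies vs growth control, visual read. Erythromycin A reference plate.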

M[…] ATCC 9341 = assay: as above; details: M. luteus ATCC 9341, unit assumed
In short: as §1

M[…] ATCC 4698 = assay: as above; details: M. luteus ATCC 4698, unit assumed
In short: as §1

EN[…] ATCC 8043 = assay: as above; details: E. faecium ATCC 8043, unit assumed
In short: as §1

[21] = test system: PSEUDOMONAS AERUGINOSA DPHD-5263; assay: as above; details: P. aeruginosa DPHD-5263, unit assumed
[22] = test system: STAPHYLOCOCCUS AUREUS CMX 553; assay: as above; details: S. aureus CMX 553, unit assumed

CC[C@H]1OC(=O)[C@H](C)C(=O)[C@H](C)[C@@H](O[C@@H]2O[C@H](C)C[C@H](N(C)C)[C@H]2O)[C@](C)(OC)C[C@@H](C)C2=N[C@H](COCc3ccccc3Cl)CN3C(=O)O[C@@]1(C)[C@H]3[C@H]2C [Example 78]
MIC [1]: > 100 µg/mL
MIC [2]: > 100 µg/mL
MIC [3]: > 100 µg/mL
MIC (ESCHERICHIA COLI JUHL): > 100 µg/mL
MIC [4]: > 100 µg/mL
MIC [5]: 0.39 µg/mL (≈ 0.492 µM)
MIC (PSEUDOMONAS CEPACIA 296I): > 100 µg/mL
MIC (ESCHERICHIA COLI H560): > 100 µg/mL
MIC (ESCHERICHIA COLI SS): 1.56 µg/mL (≈ 1.97 µM)
MIC [6]: 3.1 µg/mL (≈ 3.91 µM)
MIC [7]: 100 µg/mL (≈ 126 µM)
MIC [8]: 0.39 µg/mL (≈ 0.492 µM)
MIC (ESCHERICHIA COLI DC-2): > 100 µg/mL
MIC [9]: > 100 µg/mL
MIC [10]: > 100 µg/mL
MIC [11]: ≤ 0.005 µg/mL
MIC [12]: 25 µg/mL (≈ 31.5 µM)
MIC [13]: 0.78 µg/mL (≈ 0.984 µM)
MIC [14]: 0.39 µg/mL (≈ 0.492 µM)
MIC [15]: 0.78 µg/mL (≈ 0.984 µM)
MIC (CANDIDA ALBICANS CCH 442): 100 µg/mL (≈ 126 µM)
MIC [16]: 0.2 µg/mL (≈ 0.252 µM)
MIC [17]: 100 µg/mL (≈ 126 µM)
MIC (ESCHERICHIA COLI KNK 437): > 100 µg/mL
MIC [18]: ≤ 0.005 µg/mL
MIC [19]: 100 µg/mL (≈ 126 µM)
MIC [20]: > 100 µg/mL
MIC (STR[…] 508): ≤ 0.005 µg/mL
MIC (M[…] ATCC 9341): 0.02 µg/mL (≈ 0.0252 µM)
MIC (M[…] ATCC 4698): 0.39 µg/mL (≈ 0.492 µM)
MIC (EN[…] ATCC 8043): 0.05 µg/mL (≈ 0.0631 µM)
MIC [21]: > 100 µg/mL
MIC [22]: 0.78 µg/mL (≈ 0.984 µM)
